Common to all, as to type: functional
Assay [1] is filed under the species Rattus norvegicus. Description: Ability to enhance stimulated release of AcCh from striatum region of rat brain.
Assay [2] deals with Rattus norvegicus. Description: Tested for rat passive avoidance hypoxia induced amnesia at 0.1 mg/kg administered subcutaneously. Conditions: route subcutaneous.
In assay [3] the test system is Rattus norvegicus. In words: Tested for rat passive avoidance hypoxia induced amnesia at 0.3 mg/kg administered subcutaneously. As to conditions: route subcutaneous.
Assay [4] relates to Rattus norvegicus. Description: Tested for rat passive avoidance hypoxia induced amnesia at 30.0 mg/kg administered subcutaneously (p<0.05). Conditions: route subcutaneous.
In assay [5] the test system is Rattus norvegicus. In words: Tested for rat passive avoidance hypoxia induced amnesia at 100 mg/kg administered subcutaneously. As to conditions: route subcutaneous.
The test system of assay [6] is Rattus norvegicus. In words: Tested for rat passive avoidance hypoxia induced amnesia at 1.0 mg/kg administered subcutaneously. Conditions: route subcutaneous.
In assay [7] the test system is Rattus norvegicus. Description: Tested for rat passive avoidance hypoxia induced amnesia at 10.0 mg/kg administered subcutaneously (p<0.025). Conditions: route subcutaneous.
For assay [8], the system named is Rattus norvegicus. Description: Tested for rat passive avoidance hypoxia induced amnesia at 3.0 mg/kg administered subcutaneously (p<0.025). Conditions: route subcutaneous.
For assay [9], the species on record is Rattus norvegicus. Description: Tested for rat passive avoidance hypoxia induced amnesia (no hypoxia).

In the case of `CCOCCCCC1(Cc2ccncc2)C(=O)N(c2ccccc2)c2ccccc21.Cl` (centres undefined), the Release in the assay filed under Rattus norvegicus [1] stood at 17%.

Consider `CCOC(=O)CCCC1(Cc2ccncc2)C(=O)N(c2ccccc2)c2ccccc21.Cl` (stereo in doubt; 8), for which the Median retension latency was determined as 79.5 in the assay on Rattus norvegicus [2]; 37.5 in the assay on Rattus norvegicus [3]; 201 with Rattus norvegicus [4]; 34 with Rattus norvegicus [5]; 89.5 in the assay with Rattus norvegicus [6]; 136 with Rattus norvegicus [7]. For the same compound, the figures for the Median retension latency with Rattus norvegicus [8] and in the assay listed under Rattus norvegicus [9] were 112 and 300, respectively. Also, the Release in the assay listed under Rattus norvegicus [1] was 99%.

Take `O=C1C(Cc2ccncc2)c2ccccc2N1c1ccccc1` (centres undefined): in the assay filed under Rattus norvegicus [1], the Release is listed as 0%.

For `CN(C)CCC1(Cc2ccncc2)C(=O)N(c2ccccc2)c2ccccc21.Cl.Cl` (centres undefined), the Release in the assay listed under Rattus norvegicus [1] came out at 3%.

For the compound `Cl.N#CCCCCCC1(Cc2ccncc2)C(=O)N(c2ccccc2)c2ccccc21` (centres undefined), in the assay filed under Rattus norvegicus [1], the Release was 74%.

For `CCCS(=O)(=O)CCCCC1(Cc2ccncc2)C(=O)N(c2ccccc2)c2ccc(Cl)cc21.Cl` (centres undefined), the Release in the assay listed under Rattus norvegicus [1] stood at 8%.

On to `CCOC(=O)/C=C/CC1(Cc2ccncc2)C(=O)N(c2ccccc2)c2ccccc21.Cl` (centres undefined), for which the Release in the assay filed under Rattus norvegicus [1] is given as 41%.

Take `Cl.O=C(O)CCCC1(Cc2ccncc2)C(=O)N(c2ccccc2)c2ccccc21` (centres undefined): the Release in the assay listed under Rattus norvegicus [1] came to 0%.

In the case of `CCCCCCC1(Cc2ccncc2)C(=O)N(c2ccccc2)c2ccccc21` (centres undefined), the Release in the assay filed under Rattus norvegicus [1] stood at 6%.

For `Cl.O=C1N(c2ccccc2)c2ccccc2C1(CCCCO)Cc1ccncc1` (centres undefined), the Release in the assay filed under Rattus norvegicus [1] was 29%.

With `CC(=O)OCCCCC1(Cc2ccncc2)C(=O)N(c2ccccc2)c2ccccc21.Cl` (centres undefined), the Release in the assay listed under Rattus norvegicus [1] is given as 27%.

As to `O=C1N(c2ccccc2)c2ccccc2C1(Cc1ccncc1)Cc1ccncc1` [LINOPIRDINE], the Release in the assay filed under Rattus norvegicus [1] worked out at 100%.

For `Cl.O=C(O)CC1(Cc2ccncc2)C(=O)N(c2ccccc2)c2ccccc21` (centres undefined), in the assay filed under Rattus norvegicus [1], the Release is recorded as -2%.

Regarding `Cl.N#CCCCCCCC1(Cc2ccncc2)C(=O)N(c2ccccc2)c2ccccc21` (centres undefined), the Release in the assay filed under Rattus norvegicus [1] amounted to 19%.

With `COC(=O)CCC1(Cc2ccncc2)C(=O)N(c2ccccc2)c2ccccc21.Cl` (centres undefined), in the assay filed under Rattus norvegicus [1], the Release is listed as 51%.

Regarding `CCOC(=O)CCCC1(Cc2ccncc2)C(=O)N(c2ccccc2)c2ccccc21.Cl` (racemic), the Release in the assay listed under Rattus norvegicus [1] is 109%.

Consider `Cl.O=C1N(c2ccccc2)c2ccccc2C1(CCO)Cc1ccncc1` (centres undefined), for which, in the assay filed under Rattus norvegicus [1], the Release was 12%.

For the compound `Cl.N#CCCCCC1(Cc2ccncc2)C(=O)N(c2ccccc2)c2ccccc21` (centres undefined), the Release in the assay filed under Rattus norvegicus [1] amounted to 133%.

For `O=C1N(c2ccccc2)c2ccccc2C1(CCCO)Cc1ccncc1` (centres undefined), the Release in the assay filed under Rattus norvegicus [1] was determined as 27%.

Regarding `CCCSCCCCC1(Cc2ccncc2)C(=O)N(c2ccccc2)c2ccccc21.Cl` (centres undefined), in the assay listed under Rattus norvegicus [1], the Release is reported as 24%.

Turning to `Cl.O=C(CCC1(Cc2ccncc2)C(=O)N(c2ccccc2)c2ccccc21)c1ccc(F)cc1` (centres undefined), the Release in the assay filed under Rattus norvegicus [1] is listed as 11%.

As for `CCOC(=O)CCCCC1(Cc2ccncc2)C(=O)N(c2ccccc2)c2ccccc21.Cl` (centres undefined), in the assay listed under Rattus norvegicus [1], the Release was determined as 3%.

For `CC(=O)CCCC1(Cc2ccncc2)C(=O)N(c2ccccc2)c2ccccc21.Cl` (centres undefined), the Release in the assay listed under Rattus norvegicus [1] turned out to be 18%.

For `Cl.N#CCCCC1(Cc2ccncc2)C(=O)N(c2ccccc2)c2ccccc21` (centres undefined), the Release in the assay listed under Rattus norvegicus [1] is 74%.

Turning to `Cl.NC(=O)CCCC1(Cc2ccncc2)C(=O)N(c2ccccc2)c2ccccc21` (centres undefined), the Release in the assay filed under Rattus norvegicus [1] is listed as 26%.

Regarding `Cl.O=C(CCCC1(Cc2ccncc2)C(=O)N(c2ccccc2)c2ccccc21)c1ccc(F)cc1` (centres undefined), the Release in the assay filed under Rattus norvegicus [1] is 29%.

On to `CCOC(=O)CCCC1(Cc2ccncc2)C(=O)N(c2ccccc2)c2ccccc21.Cl` (single isomer, unassigned; (-)), for which, in the assay listed under Rattus norvegicus [1], the Release came out at 3%.

Take `CCOC(=O)CC1(Cc2ccncc2)C(=O)N(c2ccccc2)c2ccccc21.Cl` (centres undefined): in the assay filed under Rattus norvegicus [1], the Release came to 21%.

Take `CCOC(=O)CCC1(Cc2ccncc2)C(=O)N(c2ccccc2)c2ccccc21.Cl` (centres undefined): the Release in the assay filed under Rattus norvegicus [1] is on record as 57%.

Take `O=C1N(c2ccccc2)c2ccccc2C1(O)Cc1ccncc1` (centres undefined): the Release in the assay listed under Rattus norvegicus [1] was 8%.

Turning to `Cl.N#CCC1(Cc2ccncc2)C(=O)N(c2ccccc2)c2ccccc21` (centres undefined), the Release in the assay filed under Rattus norvegicus [1] came to 11%.

Values taken from ChEMBL document CHEMBL1126833, “3-Substituted, 3-(4-pyridinylmethyl)-1,3-dihydro-1-phenyl-2H-indol-2-ones as acetylcholine release enhancers: synthesis and SAR” (J Med Chem, 1993).
